Data on two molecules can be found in patent US20080045451A1, “Novel thymidylate synthase mutants” (priority 2000, published 2008).

One assay concerns 3T3 fibroblasts. In words: Cytotoxicity of 5-FU in 3T3 fibroblasts with or without PTD-4-TSD254E fusion protein (Hoechst 33342). Type of assay: cell-based. Conditions: 24 h. Here is the method:
3T3 fibroblasts cells (available by the American Type […] Collection (ATCC, Rockville, Md., USA) were seeded with a cell density of 1×10^4 cells per well into 96-well-cell culture plates. DMEM medium with 10% fetal calve serum is used as cell culture medium, and cells are cultured in a CO2-incubator at 37° C. and 5% CO2. The cell culture medium is aspirated after 24 hours and substituted by 200 μL/well of the test assay and cells are incubated for another 24 hours. Subsequently the portion of viable cells was determined as described below. The test assays are composed as follows:
Controls without 5-FU and without PTD-4-TSD2S4E-fusion protein: 200 μL/well of DMEM with 10%.fetal calve serum […]
After completion of the 24-hour treatment of the cells in the control- or test assaysas described above, the medium is removed from the 96-well-plates and substituted by 200 μL/well DMEM medium with 10% fetal calve serum and 10 μg/mL of the DNA-binding fluorescent dye H33342 (Engelmann et al., 2001). […] Subsequently, 100 μL well PBS is added and the fluorescence is quantified at an […]. The intensity of the fluorescence signal is a measure for the number of viable cells. […] The fluorescence intensity of these samples is set as 100%. […] The ED50-values were calculated using the nonlinear regression. […]

Assay [1] has as its system primary human gingival fibroblasts. Briefly: Cytotoxicity of 5-FU in primary human gingival fibroblasts with or without PTD-4-TSD254E fusion protein (Hoechst 33342). In kind it is cell-based. To be noted: 10 mM 5-FU, 24 h, without PTD-4-TSD254E, FIG. 7. Here is the method:
After completion of the 24-hour treatment of the cells in the control- or test assaysas described above, the medium is removed from the 96-well-plates and substituted by 200 μL/well DMEM medium with 10% fetal calve serum and 10 μg/mL of the DNA-binding fluorescent dye H33342 (Engelmann et al., 2001). The plates are kept at 37° C. for 30 minutes and are then washed twice with each 100 μL/well phosphaste-buffered sodium chloride solution (PBS, “phosphate buffered saline”). Subsequently, 100 μL well PBS is added and the fluorescence is quantified at an […]. The intensity of the fluorescence signal is a measure for the number of viable cells. The fluorescence background signal (dye incubation without cells) is subtracted from the raw data of the fluorescence readings and the calculation of the %-share of viable cells is made related to the fluorescence reading of cells, which were not treated with 5-FU. The fluorescence intensity of these samples is set as 100%. The dosage of 5-FU that kills 50% of the cells (ED50), is determined using the same method. […] The ED50-values were calculated using the nonlinear regression. This method to determine the ED50 has been already described (Engelmann et al., 2001). […]

For assay [2] the following is noted: Ho et al., 2001; cited from earlier work.

As to `O=c1[nH]cc(F)c(=O)[nH]1` [Mutant 5-FU, 5-fluorouracil], the survival of cells turned out to be 50% in the assay on 3T3 fibroblasts (2.5 μM 5-FU, absence of PTD-4-TSD254E, FIG. 6) and 70% in assay [1]. Moreover, in the assay with 3T3 fibroblasts (3T3-fibroblast cell line, read-out: ED50 (dosage of 5-FU that kills 50% of the cells)), the EC50 came to 2500 nM.
With “PTD-4: optimized TAT sequence YARAAARQARA (SEQ ID NO: 6), protein transduction domain 4 (synthetic TAT sequence optimized by random mutagenisis)”, in assay [2], the “transduction activity in comparison to the original TAT sequence” value was 33 fold.
